Data on six compounds can be found in US20040131581A1, “Novel synergistic antimicrobial compositions and methods” (SureCide Technologies, LLC, priority 2001, published 2004).

Entries after “also recorded” stand apart in the source; their conditions may differ. Structures can show the parent of a compound that is named as a salt.

Data set [1] deals with Salmonella choleraesuis (strain 10708). The experiment in a line: Growth of Salmonella in nutrient broth containing treated rice-hull litter, visual examination. Conditions: for Growth of Salmonella in the Presence of an Iodophore: Example 7, 7 g litter treated 30 minutes, 0.5 g litter, 24 hrs at 37° C.; for Growth of Salmonella upon litter treated with one or more treatment composition components: Example 4, 7 g litter treated, Tables 5A, 5B, 5C; for Growth of Salmonella upon litter treated with various concentrations of treatment composition: Example 6, litter of Example 4 re-tested, 24 hours at 37° C. Type of data set: cell-based. On the procedure:
. After exposing the litter to the antimicrobial composition, the preparations were filtered and the impregnated litter filtrates were dried and placed in separate culture tubes. Sterile nutrient broth (NB) was added to each tube and appropriate tubes were inoculated with 10^3 cfu/mL of Salmonella. All tubes were incubated overnight and examined visually. Visual interpretation results were confirmed by subculturing all culture tubes to plated media. […]
After soaking, the test preparations were removed from the litter material by vacuum filtration. The wet litter was spread on paper towels and allowed to dry between about 5 hours and overnight, followed by approximately 45 minutes exposure to desiccant.
Each of the treated litter samples was tested in triplicate for the ability to reduce or inhibit growth of an inoculated Salmonella culture. Three aliquots of litter (0.5 g each) from each of the four batches of treated litter (FeCl3/citrate, chitosan, FeCl3/citrate/chitosan, and water) were measured and placed in test tubes, to which 18 mL of microbial nutrient broth (Hardy Diagnostics, Santa Maria Calif.) was added. Control test tubes containing untreated litter (e) and no litter (f) were also prepared.
The tubes containing the treated litter were inoculated with 2 mL of a 10^4 cells/mL stock Salmonella solution (final concentration of 10^3 cells/mL). The inoculated tubes were incubated at 37° C. for 24 hours, then visually examined for positive cell growth. In addition, a sample from each test tube was subcultured onto nutrient and MacConkey agar.

The nature of data set [2]: pH of the litter-containing nutrient broth after incubation. The data set is classed as physicochemical. The conditions noted are these: for pH: Example 6, tube solution after 24 hours at 37° C.; for pH of the growth media after incubation in the presence of litter: Example 4. How it is done:
Two extra tubes were used for positive growth (cells only) and negative growth (no cells) growth controls. 18 ml of NB was added to each tube, and […]. The tubes were incubated for 24 hours at 37° C., after which the pH was measured and the number of tubes for each treatment showing signs of bacterial growth were counted.

With povidone-iodine complex [.25% PIC], the “Growth of Salmonella in the Presence of an Iodophore” value in data set [1] is on record as “Growth”.
For the compound `[Cl][Fe]([Cl])[Cl]` [50 mM Fe, FeCl3], in data set [2], the pH entry was “pH 6.3”. In addition, in data set [1], the “Growth of Salmonella upon litter treated with one or more treatment composition components” value was “Growth” and the “Growth of Salmonella upon litter treated with various concentrations of treatment composition” value is given as “Growth”.
Regarding `O=C(O)CC(O)(CC(=O)O)C(=O)O` [50 mM citrate], in data set [2], the pH entry is “pH 6.4”. In data set [1], the “Growth of Salmonella upon litter treated with one or more treatment composition components” value is listed as “Growth” and the “Growth of Salmonella upon litter treated with various concentrations of treatment composition” value was “Growth”.
`CC(=O)O` [Acetic Acid]: the “pH of the growth media after incubation in the presence of litter” value in data set [2] is recorded as approximately 6. Moreover, the “Growth of Salmonella upon litter treated with one or more treatment composition components” value was “Growth” in data set [1] and “completely ineffective” in data set [1] (listed as acetic acid).
For the compound `Cl` [HCl], in data set [2], the “pH of the growth media after incubation in the presence of litter” value is approximately 6. Besides, the “Growth of Salmonella upon litter treated with one or more treatment composition components” value in data set [1] is recorded as “completely ineffective; also recorded: Growth”.
For povidone-iodine complex [0.1% PIC], the “Growth of Salmonella in the Presence of an Iodophore” value in data set [1] is reported as “ineffective”.
